Square brackets hold non-standard residues; d marks the D form. Ends that are not written are not given here. Peptide text beside a SMILES is read from it.
B1: recombinant granulysin: protein expressed by human cytotoxic T lymphocytes and natural killer cells, recombinant form (protein, UniProt P22749 23-145, looked up)
Granulysin: RLSPEYYDLARAHLRDEEKSCPCLAQEGPQGDLLTKTQELGRDYRTCLTIVQKLKKMVDKPTQRSVSNAATRVCRTGRSRWRDVCRNFMRRYQSRVTQGLVAGETAQQICEDLRLCIPSTGPL

How the values were obtained:
S. typhimurium = test: Lysis of bacteria by counting bacterial colonies on plates; format: cell-based; details: colony counting
Excerpt: (§1) To further investigate the contribution of secondary structure to function, additional Peptides G16-G19 (beyond peptides G1-G15, previously reported) were synthesized. Peptide G16 is identical to G13, except that a D-alanine residue was substituted for the L-alanine at position 30. […] In peptide G17, the two arginine residues in loop two are substituted with glutamine.
(§2) As shown above, substitution of the two arginine residues in Loop 2 with glutamine abrogates activity against Jurkat cells but only slightly affects lysis of S. typhimurium. Peptide G18 is identical to G14 except that a D-arginine was substituted at position 46. […] Peptide G19 incorporates both the R→Q substitutions as well as the D-arginine at position 46.
The experiments described above characterizing the activity of granulysin peptides G1-G18 relied on counting bacterial colonies on plates. This assay is quite labor intensive and would not allow evaluation of many different compounds on a number of different microbes. Therefore, we optimized an assay in which the entire procedure could be completed in a single microtiter well. […] The OD at 600 nm is read on an ELISA plate reader. […]

Jurkat cells = format: cell-based
Excerpt: as §1, §2

[1] = test system: human peripheral blood mononuclear cells (PBMC); test: Propidium iodide uptake in PBMC; format: cell-based; details: for PI uptake in normal human PBMC: 50 μM peptide, three hours
Excerpt: The second assay for effects on mammalian cells involved isolating human peripheral blood mononuclear cells (PBMC) and testing peptide induced uptake of propidium iodide (PI), a measure of membrane disruption. […] Thus, the vast majority of granulysin peptide derivatives are not toxic to mammalian cells even at high concentrations.

B. cereus = format: cell-based; details: pH 7.2
Procedure, shortened: (§3)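 Peptides were diluted in 10 mM phosphate buffer, pH 7.2 with 0.03% LB and incubated with bacteria (~5×10^6 CFU/ml) for 3 h at 37 °C in microtiter wells. LB was then added, growth continued overnight, and OD 600 nm was read. MIC is the lowest concentration with no growth; IC50 gives 50% growth versus medium.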

E. coli DH5a = format: cell-based; details: DH5a, pH 7.2
Procedure, shortened: as §3

Salmonella = format: cell-based, S. typhimurium; details: pH 7.2
Procedure, shortened: as §3

U937 cells = test: Lysis of tumor cells: apoptosis of U937 by 3H-thymidine; details: U937, 50 μM peptide, 4-6 hours
Procedure: The effects were tested in two ways. First, peptides were tested for the ability to lyse tumor cells, as judged by induction of apoptosis in the monocyte-like cell line U937. U937 cells were cultured overnight in DMEM supplemented with 10% FCS plus 1 μCi/ml ^3H-thymidine. The next day, cells were washed and cultured in DMEM/10% FCS in the presence of 50 μM peptide for 4-6 hours. Cells were then harvested and ^3H-thymidine determined by beta-scintillation counting. Apoptosis results in DNA fragmentation, so the ^3H-thymidine is reduced in cells undergoing apoptosis.

E. coli = details: previously reported; cited from earlier work

Molecule	lysis of bacteria (S. typhimurium) (S. typhimurium)	lysis of Jurkat cells (Jurkat cells)	toxicity against mammalian cells [1]	PI uptake in normal human PBMC [1]	B. cereus MIC (B. cereus)	IC50 (B. cereus)	E. coli DH5a MIC (E. coli DH5a)	IC50 (E. coli DH5a)	IC50 (Salmonella)	Salmonella MIC (Salmonella)	apoptosis of tumor cells (U937 cells)	activity depending on ionic strength of media (E. coli)
GQSQWRDVCrNFMRR [Peptide G19]	behaves identically to G115	–	–	–	–	–	–	–	–	–	–	–
QRSVSNAaTRVCRTGQSQW [Peptide G17]	no longer exhibits activity against S. typhimurium	Neither peptide G16 nor G17 lysed Jurkat cells in an appreciable way	–	–	–	–	–	–	–	–	–	–
CC[C@@H](C)[C@@H](NC(=O)[C@@H](CCCNC(=N)N)NC(=O)[C@@H](CCCNC(=N)N)NC(=O)[C@@H](CO)NC(=O)[C@@H](CCCNC(=N)N)NC(=O)[C@@H](Cc1ccc(O)cc1)NC(=O)[C@@H](CCCNC(=N)N)NC(=O)[C@@H](CCCNC(=N)N)NC(=O)[C@@H](CCSC)NC(=O)[C@@H](Cc1ccccc1)NC(=O)[C@@H](CCCNC(=N)N)NC(=O)[C@@H](CCCNC(=N)N)NC(=O)[C@@H](CO)NC(=O)[C@H](NC(=O)[C@@H](CCCNC(=N)N)NC(=O)[C@H](N)CCCNC(=N)N)C(C)C)C(=O)N[C@H](CCCNC(=N)N)C(=O)N[C@H](CCCNC(=N)N)C(=O)N[C@H](CC(C)C)C(=O)N[C@@H](C(=O)O)C(C)C [Peptide G12.34, rrvsrrfmrryrsrrirrlv] (H-[dR][dR][dV][dS][dR][dR][dF][dM][dR][dR][dY][dR][dS][dR][dR][dI][dR][dR][dL][dV]-OH)	–	–	somewhat lytic against mammalian cells	caused PI uptake in normal human PBMC	0.31 µM	120 nM	0.2 µM	110 nM	210 nM	0.78 µM	cause apoptosis of tumor cells	–
CSCC[C@H](NC(=O)[C@H](Cc1ccccc1)NC(=O)[C@H](CC(N)=O)NC(=O)[C@@H](CCCNC(=N)N)NC(=O)[C@H](CS)NC(=O)[C@@H](NC(=O)[C@H](CC(=O)O)NC(=O)[C@H](CCCNC(=N)N)NC(=O)[C@H](Cc1c[nH]c2ccccc12)NC(=O)[C@H](CCCNC(=N)N)NC(=O)[C@H](CO)NC(=O)[C@H](CCCNC(=N)N)NC(=O)CN)C(C)C)C(=O)N[C@@H](CCCNC(=N)N)C(=O)N[C@@H](CCCNC(=N)N)C(=O)O [Peptide G18, GRSRWRDVCrNFMRR] (H-GRSRWRDVC[dR]NFMRR-OH)	–	loses some activity against Jurkat cells	–	–	–	–	–	–	–	–	–	–
GRSRWRDVCRNFMRR [Peptide G14, GRSRWRDVCRNFMRR, reference compound]	–	lyses both bacteria and mammalian cells	–	–	2.8 µM	1750 nM	1.37 µM	890 nM	890 nM	1.37 µM	–	–
CSCC[C@@H](NC(=O)[C@@H](Cc1ccccc1)NC(=O)[C@@H](CCCNC(=N)N)NC(=O)[C@@H](CCCNC(=N)N)NC(=O)[C@@H](CO)NC(=O)[C@H](NC(=O)[C@@H](CCCNC(=N)N)NC(=O)[C@H](N)CCCNC(=N)N)C(C)C)C(=O)N[C@H](CCCNC(=N)N)C(=O)N[C@H](CCCNC(=N)N)C(=O)N[C@H](Cc1ccc(O)cc1)C(=O)N[C@H](CCCNC(=N)N)C(=O)N[C@H](CO)C(=O)N[C@H](CCCNC(=N)N)C(=O)N[C@H](CCCNC(=N)N)C(=O)N1CCC[C@@H]1C(=O)N[C@H](CCCNC(=N)N)C(=O)N[C@H](CCCNC(=N)N)C(=O)N[C@H](CC(C)C)C(=O)N[C@@H](C(=O)O)C(C)C [Peptide G12.35, rrvsrrfmrryrsrrprrlv] (H-[dR][dR][dV][dS][dR][dR][dF][dM][dR][dR][dY][dR][dS][dR][dR][dP][dR][dR][dL][dV]-OH)	–	–	somewhat less toxic against mammalian cells	caused PI uptake in normal human PBMC	0.75 µM	450 nM	0.11 µM	< 78 nM	210 nM	0.32 µM	cause apoptosis of tumor cells	–
B1	–	–	–	–	–	–	–	–	–	–	–	completely loses activity in media>50 mM salt

Reference: patent publication US7745390B2, “Antimicrobial peptides” (priority 2005, dated 2010)
